Results on 2 molecules are retold here after US11952371B1, “2-[(1,3-benzoxazol-2-yl)imino]-5,5-diphenylimidazolidin-4-one as an antimicrobial compound” (KING FAISAL UNIVERSITY, priority 2023, dated 2024).

In data set [1] the test system is Chrysosporium keratinophilum. The data set can be described thus: Agar plate disc-diffusion, antifungal activity. It counts as cell-based. As to the method: (§1) The agar plate disc-diffusion method was applied. […] The discs were then placed onto the surface of agar plates (nutrient agar for bacteria and Sabouraud's dextrose agar for fungi) seeded with the test organism. Each plate contained 15 mL of the agar medium, previously seeded with 0.2 mL of the broth culture of each organism pregrown for 18 hours. The plates were incubated at 37° C. for 48 hours, and 72 hours for fungi. The inhibition zones were measured in millimeter. Discs impregnated with DMSO were used as a control, and its inhibition zone was subtracted from the tested compound actual inhibition zone.
(§2) The results of the antimicrobial testing can be observed in Tables 1 and 2, below, with ciprofloxacin serving as a reference.
Background: In agar diffusion tests the substance spreads into inoculated agar from a disc or well.

In another data set the test system is Aspergillus flavus. Description: Agar plate disc-diffusion, antifungal activity. It counts as cell-based. As to the method: as §1, §2
A further data set relates to Escherichia coli. Description: Agar plate disc-diffusion, antibacterial activity. The data set is classed as cell-based. As to the method: as §1, §2
The subject of the next data set is Pseudomonas aeruginosa. The data set can be described thus: Agar plate disc-diffusion, antibacterial activity. The data set is classed as cell-based. As to the method: as §1, §2
Another data set relates to Staphylococcus aureus. The data set can be described thus: Agar plate disc-diffusion, antibacterial activity. The data set is classed as cell-based. As to the method:
as §1, §2

The test system of a further data set is Bacillus cereus. The data set can be described thus: Agar plate disc-diffusion, antibacterial activity. It counts as cell-based. As to the method:
as §1, §2

The mark [2] stands for this setting: A = concentration of comp. = 10,000 μL.
Where [3] appears, read: B = concentration of comp. = 30,000 μL.
[4] abbreviates: C = concentration of comp. = 50,000 μL.

Regarding `O=C(O)c1cn(C2CC2)c2cc(N3CCNCC3)c(F)cc2c1=O` [Cip., ciprofloxacin, reference compound], the inhibition zone in data set [1] (setting [2]) is given as 29 millimeter; in data set [1] (setting [3]), 30 millimeter; in data set [1] (setting [4]), 53 millimeter; in the data set with Aspergillus flavus (setting [2]) it was 29 millimeter; in the data set on Aspergillus flavus (setting [3]), 30 millimeter; with Aspergillus flavus (setting [4]), 42 millimeter. The inhibition zone in the data set with Escherichia coli (setting [2]) amounted to 30 millimeter; in the data set on Escherichia coli (setting [3]) it was 39 millimeter; in the data set with Escherichia coli (setting [4]), 60 millimeter; in the data set with Pseudomonas aeruginosa (setting [2]), 29 millimeter; in the data set with Pseudomonas aeruginosa (setting [3]), 30 millimeter; in the data set with Pseudomonas aeruginosa (setting [4]), 53 millimeter. Besides, the inhibition zone is listed as 42 millimeter with Staphylococcus aureus (setting [2]); 44 millimeter in the data set on Staphylococcus aureus (setting [3]); 53 millimeter in the data set with Staphylococcus aureus (setting [4]); 29 millimeter with Bacillus cereus (setting [2]); 31 millimeter in the data set on Bacillus cereus (setting [3]); 42 millimeter in the data set with Bacillus cereus (setting [4]).

As to `O=C1N/C(=N/c2nc3ccccc3o2)NC1(c1ccccc1)c1ccccc1` [compound 3, 2-[(1,3-benzoxazol-2-yl)imino]-5,5-diphenylimidazolidin-4-one], the melting point lay in the range of 234 to 236 °C. Further, the inhibition zone in data set [1] (setting [2]) turned out to be 22 millimeter. For the same molecule, the inhibition zone in data set [1] (setting [3]) is 25 millimeter. This molecule also returned an inhibition zone in data set [1] (setting [4]) of 47 millimeter. The molecule also yielded an inhibition zone in the data set with Aspergillus flavus (setting [2]) of 19 millimeter. Further, the inhibition zone with Aspergillus flavus (setting [3]) is recorded as 23 millimeter. The inhibition zone in the data set on Aspergillus flavus (setting [4]) was 37 millimeter. This molecule gave an inhibition zone in the data set with Escherichia coli (setting [2]) of 25 millimeter. The molecule further gave an inhibition zone in the data set on Escherichia coli (setting [3]) of 33 millimeter. In the data set with Escherichia coli (setting [4]), the inhibition zone is reported as 39 millimeter. In the data set on Pseudomonas aeruginosa (setting [2]), this molecule had an inhibition zone of 26 millimeter. For the same molecule, the inhibition zone in the data set on Pseudomonas aeruginosa (setting [3]) is 30 millimeter. In the data set on Pseudomonas aeruginosa (setting [4]), the inhibition zone was 48 millimeter. Moreover, the inhibition zone in the data set with Staphylococcus aureus (setting [2]) was determined as 16 millimeter. In addition, in the data set with Staphylococcus aureus (setting [3]), the inhibition zone stood at 19 millimeter. The inhibition zone with Staphylococcus aureus (setting [4]) came out at 23 millimeter. Also, in the data set on Bacillus cereus (setting [2]), the inhibition zone is 27 millimeter. In the data set on Bacillus cereus (setting [3]), this molecule gave an inhibition zone of 30 millimeter. The molecule further came in with an inhibition zone in the data set with Bacillus cereus (setting [4]) of 42 millimeter.

What is called melting point is the temperature, or range, at which the solid turns liquid.
